Results on 3 compounds are retold here after PMC10824666 (Nature Cancer, 2023).

Like-named read-outs stand apart in the source and are kept apart here.

Assay in all cases: biochemical
What all share (set-up): Eurofins DiscoverX kinase panel, competitive binding assay at 1 uM, percent of DMSO control
Settings in all cases: competitive binding, percent of DMSO control

For one experiment, the target named is T1, PKC ε (Homo sapiens, UniProt Q02156).
T1 construct: gene PRKCE
T1 sequence (Q02156 1-737): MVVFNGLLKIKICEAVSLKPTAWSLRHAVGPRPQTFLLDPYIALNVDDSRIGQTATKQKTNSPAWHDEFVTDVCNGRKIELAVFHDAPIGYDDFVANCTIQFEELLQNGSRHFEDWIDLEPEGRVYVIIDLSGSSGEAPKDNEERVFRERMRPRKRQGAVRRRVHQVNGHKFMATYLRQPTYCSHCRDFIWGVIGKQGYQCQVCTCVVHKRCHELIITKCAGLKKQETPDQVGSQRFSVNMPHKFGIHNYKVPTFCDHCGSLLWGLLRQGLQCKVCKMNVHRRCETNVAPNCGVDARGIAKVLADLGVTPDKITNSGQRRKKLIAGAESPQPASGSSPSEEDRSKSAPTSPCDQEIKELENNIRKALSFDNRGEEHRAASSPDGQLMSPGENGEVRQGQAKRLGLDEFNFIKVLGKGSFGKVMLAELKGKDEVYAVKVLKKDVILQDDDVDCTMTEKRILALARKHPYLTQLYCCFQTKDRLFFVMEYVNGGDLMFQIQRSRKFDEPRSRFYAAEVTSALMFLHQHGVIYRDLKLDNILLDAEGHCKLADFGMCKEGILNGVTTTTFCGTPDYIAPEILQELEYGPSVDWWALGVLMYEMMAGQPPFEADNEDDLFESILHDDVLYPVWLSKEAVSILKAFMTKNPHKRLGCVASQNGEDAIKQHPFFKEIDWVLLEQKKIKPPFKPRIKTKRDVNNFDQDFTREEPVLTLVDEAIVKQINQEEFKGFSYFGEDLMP
As for the experimental part:
(§1) Extended Data Fig. 3 In vitro characterization of potent and selective KIF18A inhibitors. a, KIF18A compounds (1 µM) were assessed across a panel of kinases (n = 96) by a competitive binding assay. Graph presented as percentage of control (POC); dashed line indicates POC value of 30 (n = 1 experiment). b, Tubulin polymerization analysis. Profile of KIF18A compounds (10 µM) relative to DMSO, paclitaxel (5 µM, tubulin stabilizer), or nocodazole (5 µM, tubulin destabilizer). Graphs presented as tubulin fluorescence signal at 440 nm expressed as arbitrary units (a.u.) versus time (min) with area-under-the-curve (AUC) values (n = 1 or 3 independent experiments). c, Mitotic spindle image analysis. […] Representative images were captured with x40 objective (scale bar = 10 µm) (n = 1 experiment). d-f, KIF18A compound effects on HeLa cells. d, Cells were treated for 96 h with DMSO or KIF18A compounds at the indicated concentrations. KIF18A compound concentration-response profiles presented as count relative to the percentage of DMSO control (POC) with count EC50 values (n = 2 independent experiments in duplicate). e, KIF18A protein localization in cells after treatment for 6 hours with DMSO or AM-1882 (0.05 µM). Cells stained to detect DNA, KIF18A, and centrin-3. Representative images of mitotic cells (n = 3 per group) were captured with x60 objective (scale bar = 5 µm) and graphs of line scan measurements were obtained for DNA, KIF18A, and centrin-3 channels expressed as fluorescence intensity (a.u.) versus distance (µm) (n = 1 experiment). f, Mitotic cell fate imaging analysis. HeLa Kyoto cells co-expressing α-tubulin-EGFP and H2B-mCherry proteins released from a G1S block in media containing DMSO or AM-1882 (0.2 µM). Analysis was performed on cells entering the first mitosis (n = 40 cells per group). Graph presented as time in mitosis (h) versus mitotic cell fate, either complete cell division (CCD) or death in mitosis (DiM). Classified cells exiting mitosis by the number of daughter cells and cell death in […] We screened a small-molecule library of diverse compounds for selective inhibitors of KIF18A MT-ATPase motor activity. Two compound hits were discovered that phenocopied the effects of KIF18A KD in cells; these hits are structurally distinct from the KIF18A inhibitor BTB-1 (refs. [27],[28]). […] However, the potency of the KIF18A inhibitors was unaffected by varying ATP and MT concentrations (Extended Data Fig. 2d). This supports our proposed model in which KIF18A inhibitors occupy an allosteric pocket formed by motor helices α4 and α6 close to the motor MT-binding surface. To screen for potential off-target interactions with essential mitotic kinases, three of the KIF18A compounds were profiled against a large panel of kinases. […] We next investigated whether our KIF18A inhibitors affected tubulin polymerization in vitro in the absence of the KIF18A motor. All four KIF18A compounds had tubulin-polymerization profiles similar to that of the DMSO control and distinct from those of the paclitaxel (MT stabilizer) and nocodazole (MT destabilizer) co

In the next experiment the target is CAMK2D (Homo sapiens, UniProt Q13557). As for the experimental part:
as §1

In a further experiment the target is T2, p38 α (Homo sapiens, UniProt Q16539).
T2 construct: gene MAPK14
Here is the method: as §1

Another experiment addresses T3, MSK1 (Homo sapiens, UniProt O75582).
T3 construct: gene RPS6KA5
Here is the method: as §1

Another experiment addresses STK32B (Homo sapiens, UniProt Q9NY57). Here is the method:
as §1

For the next experiment, the target named is HIPK1 (Homo sapiens, UniProt Q86Z02). As for the experimental part:
as §1

[1] abbreviates: read-out: Kinome Profiling performed by Eurofins DiscoverX / AM-0277, 1.0 µM / POC.
Where [2] appears, read: read-out: Kinome Profiling performed by Eurofins DiscoverX / AM-1882, 1.0 µM / POC.
Where [3] appears, read: read-out: Kinome Profiling performed by Eurofins DiscoverX / AM-5308, 1.0 µM / POC.

Chain of STK32B (Q9NY57 whole entry): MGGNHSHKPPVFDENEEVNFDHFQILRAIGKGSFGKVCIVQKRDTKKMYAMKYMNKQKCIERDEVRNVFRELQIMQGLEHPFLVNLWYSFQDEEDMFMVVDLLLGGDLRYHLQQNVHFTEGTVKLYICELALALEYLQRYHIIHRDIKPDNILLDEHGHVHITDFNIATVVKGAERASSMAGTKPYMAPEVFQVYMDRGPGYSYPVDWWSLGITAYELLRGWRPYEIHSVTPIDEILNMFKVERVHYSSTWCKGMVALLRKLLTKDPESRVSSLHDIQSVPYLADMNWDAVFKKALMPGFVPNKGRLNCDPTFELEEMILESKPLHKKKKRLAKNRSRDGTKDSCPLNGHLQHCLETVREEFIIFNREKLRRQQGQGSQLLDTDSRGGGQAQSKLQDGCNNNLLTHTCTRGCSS
T3 sequence (O75582 whole entry): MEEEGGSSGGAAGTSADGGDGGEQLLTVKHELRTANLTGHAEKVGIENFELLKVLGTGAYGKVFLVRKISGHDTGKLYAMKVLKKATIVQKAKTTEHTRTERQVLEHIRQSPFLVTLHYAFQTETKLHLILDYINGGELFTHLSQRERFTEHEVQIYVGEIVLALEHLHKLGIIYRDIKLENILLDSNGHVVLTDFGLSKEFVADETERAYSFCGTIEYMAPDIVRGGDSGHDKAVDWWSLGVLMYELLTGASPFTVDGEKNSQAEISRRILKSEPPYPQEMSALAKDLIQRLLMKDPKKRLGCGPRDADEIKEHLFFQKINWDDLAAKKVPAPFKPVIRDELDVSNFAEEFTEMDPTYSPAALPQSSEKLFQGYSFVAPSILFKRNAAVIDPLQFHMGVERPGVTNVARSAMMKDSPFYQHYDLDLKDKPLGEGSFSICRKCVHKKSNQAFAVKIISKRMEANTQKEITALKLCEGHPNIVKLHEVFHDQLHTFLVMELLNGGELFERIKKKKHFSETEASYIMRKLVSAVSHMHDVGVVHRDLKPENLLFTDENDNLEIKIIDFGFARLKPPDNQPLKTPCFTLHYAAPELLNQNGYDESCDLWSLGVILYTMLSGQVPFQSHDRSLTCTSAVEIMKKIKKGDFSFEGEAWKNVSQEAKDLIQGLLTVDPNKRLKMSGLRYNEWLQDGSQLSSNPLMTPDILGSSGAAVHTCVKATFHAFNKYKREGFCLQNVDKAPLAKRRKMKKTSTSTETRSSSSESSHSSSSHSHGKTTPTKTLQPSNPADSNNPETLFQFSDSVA
Chain of CAMK2D (Q13557 whole entry): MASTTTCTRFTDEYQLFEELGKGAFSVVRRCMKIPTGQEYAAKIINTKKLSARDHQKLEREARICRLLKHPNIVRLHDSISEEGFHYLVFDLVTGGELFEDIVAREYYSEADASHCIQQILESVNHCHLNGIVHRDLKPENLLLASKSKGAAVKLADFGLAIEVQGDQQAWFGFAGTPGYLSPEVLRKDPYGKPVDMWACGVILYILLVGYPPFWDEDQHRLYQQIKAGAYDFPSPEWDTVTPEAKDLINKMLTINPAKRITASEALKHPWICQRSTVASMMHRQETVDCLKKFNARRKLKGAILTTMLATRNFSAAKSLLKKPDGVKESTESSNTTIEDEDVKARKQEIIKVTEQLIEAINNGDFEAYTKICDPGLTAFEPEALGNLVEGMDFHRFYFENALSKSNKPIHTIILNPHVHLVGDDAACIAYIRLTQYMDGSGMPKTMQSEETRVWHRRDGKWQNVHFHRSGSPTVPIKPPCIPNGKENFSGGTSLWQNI
Chain of HIPK1 (Q86Z02 whole entry): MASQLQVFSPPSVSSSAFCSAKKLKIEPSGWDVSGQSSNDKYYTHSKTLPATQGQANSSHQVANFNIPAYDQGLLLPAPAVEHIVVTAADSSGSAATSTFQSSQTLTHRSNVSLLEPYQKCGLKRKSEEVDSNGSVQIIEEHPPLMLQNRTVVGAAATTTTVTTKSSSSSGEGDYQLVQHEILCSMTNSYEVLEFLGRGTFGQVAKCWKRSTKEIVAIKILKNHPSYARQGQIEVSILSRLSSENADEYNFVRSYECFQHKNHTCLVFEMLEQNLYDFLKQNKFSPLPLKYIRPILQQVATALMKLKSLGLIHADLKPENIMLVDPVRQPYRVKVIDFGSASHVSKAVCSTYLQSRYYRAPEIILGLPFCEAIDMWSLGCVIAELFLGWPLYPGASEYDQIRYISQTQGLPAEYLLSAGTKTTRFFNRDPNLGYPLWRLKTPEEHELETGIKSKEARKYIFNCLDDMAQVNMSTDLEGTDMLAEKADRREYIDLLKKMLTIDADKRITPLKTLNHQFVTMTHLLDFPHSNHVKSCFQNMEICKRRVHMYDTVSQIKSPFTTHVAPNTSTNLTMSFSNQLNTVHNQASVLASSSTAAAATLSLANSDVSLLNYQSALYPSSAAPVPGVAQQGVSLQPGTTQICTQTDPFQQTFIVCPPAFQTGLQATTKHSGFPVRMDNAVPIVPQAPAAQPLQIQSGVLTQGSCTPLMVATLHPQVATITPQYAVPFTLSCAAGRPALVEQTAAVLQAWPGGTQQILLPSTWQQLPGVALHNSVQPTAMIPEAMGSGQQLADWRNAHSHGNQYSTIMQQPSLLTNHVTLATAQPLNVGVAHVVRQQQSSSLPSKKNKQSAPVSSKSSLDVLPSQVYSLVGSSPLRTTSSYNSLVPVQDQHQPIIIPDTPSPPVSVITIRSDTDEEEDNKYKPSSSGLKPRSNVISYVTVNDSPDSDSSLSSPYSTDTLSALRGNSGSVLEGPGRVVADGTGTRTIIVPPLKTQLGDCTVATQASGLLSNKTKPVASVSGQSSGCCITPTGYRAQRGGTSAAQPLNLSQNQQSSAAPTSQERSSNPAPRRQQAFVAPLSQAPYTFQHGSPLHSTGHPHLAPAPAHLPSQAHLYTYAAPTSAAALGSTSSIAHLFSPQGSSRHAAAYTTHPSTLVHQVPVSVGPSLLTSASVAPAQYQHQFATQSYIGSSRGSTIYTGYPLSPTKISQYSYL
T2 sequence (Q16539 whole entry): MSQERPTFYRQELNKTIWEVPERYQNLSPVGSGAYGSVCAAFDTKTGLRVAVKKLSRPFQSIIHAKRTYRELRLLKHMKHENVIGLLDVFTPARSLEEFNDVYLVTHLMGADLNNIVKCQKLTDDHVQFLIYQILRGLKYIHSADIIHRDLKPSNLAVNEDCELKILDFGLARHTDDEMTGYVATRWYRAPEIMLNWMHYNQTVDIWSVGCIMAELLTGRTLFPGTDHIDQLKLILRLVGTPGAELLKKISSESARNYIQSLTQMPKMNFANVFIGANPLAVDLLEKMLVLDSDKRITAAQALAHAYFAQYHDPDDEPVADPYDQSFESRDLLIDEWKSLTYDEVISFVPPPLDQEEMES

`CC(C)(CO)Nc1ccc(C(=O)Nc2cccc(S(=O)(=O)C3CCCC3)c2)c(N2CCC3(CC2)CC3)n1` [AM-0277]: the remaining activity at 1 µM at PKC ε (setting [1]) turned out to be 100%; at CAMK2D (setting [1]), 91%; on p38 α (setting [1]), 100%; at MSK1 (setting [1]), 94%; at STK32B (setting [1]), 100%; on HIPK1 (setting [1]), 61%.

For `CC(C)(C)NS(=O)(=O)c1cccc(NC(=O)c2ccc(S(=O)(=O)NC(C)(C)C)cc2N2CCC3(CC2)CC3)c1` [AM-1882], the remaining activity at 1 µM on PKC ε (setting [2]) is 93%; on CAMK2D (setting [2]) it was 100%; at p38 α (setting [2]), 100%; on MSK1 (setting [2]), 100%; at STK32B (setting [2]) it was 100%; at HIPK1 (setting [2]), 73%.

Turning to `C[C@@H]1CN(c2cccc(NC(=O)c3ccc(NS(=O)(=O)CCO)cc3N3CCC4(CC3)CC4)n2)CCO1` [AM-5308], the remaining activity at 1 µM on PKC ε (setting [3]) amounted to 97.5%; at CAMK2D (setting [3]), 58.5%; at p38 α (setting [3]) it was 89.5%; at MSK1 (setting [3]), 91.5%; at STK32B (setting [3]), 96%; on HIPK1 (setting [3]), 100%.
